# Test results taken from patent US20100160397A1, “OXAZOLE DERIVATIVES AND THEIR USE IN THE TREATMENT OF DIABETES AND OBESITY” (priority 2006, published 2010).
# Target: T1, human DGAT1 (Homo sapiens, UniProt O75907)
# T1 construct: made in house; host or cells: sf9 insect cells (baculovirus), membrane fraction
# T1 sequence (O75907 1-488): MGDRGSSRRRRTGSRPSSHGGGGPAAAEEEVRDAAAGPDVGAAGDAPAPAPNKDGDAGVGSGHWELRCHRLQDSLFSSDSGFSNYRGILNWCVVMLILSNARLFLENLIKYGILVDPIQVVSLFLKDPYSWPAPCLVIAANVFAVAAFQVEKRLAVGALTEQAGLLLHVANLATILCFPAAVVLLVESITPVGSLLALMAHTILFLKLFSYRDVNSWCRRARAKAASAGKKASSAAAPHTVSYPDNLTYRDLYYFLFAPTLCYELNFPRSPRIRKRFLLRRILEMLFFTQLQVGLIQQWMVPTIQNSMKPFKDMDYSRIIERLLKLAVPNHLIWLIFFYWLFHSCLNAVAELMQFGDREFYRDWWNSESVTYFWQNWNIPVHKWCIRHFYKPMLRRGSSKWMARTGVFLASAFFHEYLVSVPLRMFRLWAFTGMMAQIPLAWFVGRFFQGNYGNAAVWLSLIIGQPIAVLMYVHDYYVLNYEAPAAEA
# Assay: Human Enzyme Assay (DGAT1 inhibition, 14C oleoyl CoA incorporation into triolein)
# Type: biochemical
# Conditions: human DGAT1 expressed in insect cell (sf9) membranes; 30 μM 14C oleoyl coenzyme A, 30 minutes at room temperature
# Description: As indicated above, all of the compounds, and their corresponding pharmaceutically-acceptable salts, are useful in inhibiting DGAT1.
# The in vitro assay to identify DGAT1 inhibitors uses human DGAT1 expressed in insect cell membranes as the enzyme source (Proc. Natl. Acad. Sci. 1998, 95, 13018-13023). Briefly, sf9 cells were infected with recombinant baculovirus containing human DGAT1 coding sequences and harvested after 48 h. Cells were lysed by sonication and membranes isolated by centrifuging at 28000 rpm for 1 h at 4° C. on a 41% sucrose gradient. The membrane fraction at the interphase was collected, washed, and stored in liquid nitrogen.
# DGAT1 activity was assayed by a modification of the method described by Coleman (Methods in Enzymology 1992, 209, 98-102). Compound at 1-10 μM was incubated with 0.4 μg membrane protein, 5 mM MgCl2, and 10 0 μM 1,2 dioleoyl-sn-glycerol in a total assay volume of 200 μl in plastic tubes. The reaction was started by adding ^14C oleoyl coenzyme A (30 μM final concentration) and incubated at room temperature for 30 minutes. The reaction was stopped by adding 1.5 mL 2-propanol:heptane:water (80:20:2). Radioactive triolein product was separated into the organic phase by adding 1 mL heptane and 0.5 mL 0.1 M carbonate buffer pH 9.5. DGAT1 activity was quantified by counting aliquots of the upper heptane layer by liquid scintillography.
structure (smiles),measurement,value
"COC(=O)C[C@H]1CC[C@H](c2ccc(NC(=O)c3coc(Nc4ccc(F)c(F)c4)n3)cc2)CC1 [Example 2, Methyl trans-2-{4-[4-({2-[(3,4-difluorophenyl)amino]-1,3-oxazole-4-carbonyl}amino)phenyl]cyclohexyl}acetate]",IC50,32 µM
